# Assay results taken from ChEMBL document CHEMBL1145843 (J Med Chem, 2003).
# Active and inactive are the calls of the source.
# Key:
# Plasmodium falciparum [1] = experiment: Growth inhibition against Plasmodium falciparum NF54; Not active <= 3000nM; format: functional, organism-based
# Plasmodium falciparum [2] = experiment: Growth inhibition against Plasmodium falciparum K1; Not active <= 3000nM; format: functional, organism-based
# [3] = Inhibitory concentration of compound for inhibiting hematin polymerization; format: functional
# [4] = Hematin binding affinity of compound was determined as a measure of inhibiting hematin polymerization
Compound,NI (Plasmodium falciparum [1]),NI (Plasmodium falciparum [2]),IC50 [3] [mM],Ka [4] [M⁻¹]
CCN(CC)CCCC(C)Nc1cccc2cc(Cl)ccc12 (configuration not stated),inactive,inactive,> 2.5,
CCN(CC)CCCC(C)Cc1ccnc2cc(Cl)ccc12 (configuration not stated),inactive,inactive,1.5,84000
